“And” between values parts separate entries of the source, which are not always exact repeats. Equal values may be shown once. Read-outs that look alike come from different tables or passages of the source. Where a SMILES comes first, the peptide text is derived from it. Bridges are numbered along the chain shown (N, C = ends). [ ]: non-standard residue; d: D form. Orn(fluoroacetimidoyl) = N=C(CF)NCCC[C@H](N)C(=O)O
Legend:
Assay type in all cases: biochemical
[1] = biological target: T1, PADI4 (Homo sapiens, UniProt Q9UM07); test: COLDER inhibition assay, BAEE substrate, with or without 1 h preincubation; conditions: for IC50: COLDER; for remaining activity at 0.003 µM: peptide 0.003 µM; for remaining activity at 0.01 µM: peptide 0.01 µM; for remaining activity at 0.03 µM: peptide 0.03 µM; for remaining activity at 0.1 µM: peptide 0.1 µM
T1 construct: His6; made in house
Method in brief: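 50 nM His-PADI4 with peptide (final 0.1× the 0.03-500 µM series), 0.6 mg/mL BSA, 10 mM CaCl2 in 50 mM HEPES, 150 mM NaCl, 2 mM DTT, pH 7.5, with or without 1 h preincubation before 10 mM BAEE. After 30 min at rt, EDTA-quenched; citrulline read colorimetrically at 540 nm; mean ± SEM, ≥2 replicates.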

[2] = biological target: T1, PADI4; test: Incubation time-dependent COLDER assay IC50(t), Krippendorff fit; conditions: for IC50: replicates, read-out: apparent IC50
Protocol: (§1) To determine KI and kinact of covalent peptide inhibitors, COLDER assays were used[52]. Peptide dilutions were prepared using 5-fold dilutions from 500 µM and 300 µM to 0.8 µM and 2.4 µM, respectively, at 1% DMSO in COLDER buffer (50 mM HEPES, 150 mM NaCl and 2 mM DTT, pH 7.5). The 9 peptide dilutions were added to a 96-well plate, alongside a 1% DMSO control. An equal volume of 10 mM BAEE was added to each well and the solution was homogenised by pipette mixing. This was mixed with 50 nM His-PADI4, 0.6 mg/mL BSA and 10 mM CaCl2, in COLDER buffer, to bring the final volume to 300 µL in each well. Alternatively, His-PAD1 (100 nM) /His-PADI2 (100 nM) /His-PADI3 (250 nM) were used. For assays with PADI1 and PADI3, 10 mM N^α-benzoyl-L-arginine methyl […] (BAME) was used as the substrate instead of BAEE[48],[58],[59]. At 15-minute intervals, for 5 timepoints, 50 µL of solution was taken from each well and quenched with 10 µL EDTA (300 mM). 200 µL of COLDER solution containing 20 mM diacetyl monoxime/2,3-butanedione monoxime (Merck), 0.5 mM thiosemicarbazide (Acros Organics), 2.25 M H3PO4, 4.5 M H2SO4 and 1.5 mM NH4Fe(SO4)2.12H2O was added to each well. Samples were incubated for 20 min at 95 °C before measuring absorbance at 540 nm on a CLARIOstar Plus (BMG LABTECH). IC50 values for each time point were determined using non-linear regression with GraphPad Prism. Incubation time–dependent potency IC50(t) against incubation time was fitted to the Krippendorff equation (below) to determine KI and kinact using a Python script[53],[59]. […] IC50t=KI1+S/KM⋅2−2e^−ηIC50⋅kinact⋅t/ηIC50⋅kinact⋅t−1 WhereηIC50=IC50t/KI1+S/KM+IC50t

[3] = biological target: T2, PADI1 (Homo sapiens, UniProt Q9ULC6); test: Incubation time-dependent COLDER assay, selectivity
T2 construct: human PADI1 (residue 1-663); made in house; host or cells: E. coli NiCo21(DE3)
T2 sequence (Q9ULC6 1-663): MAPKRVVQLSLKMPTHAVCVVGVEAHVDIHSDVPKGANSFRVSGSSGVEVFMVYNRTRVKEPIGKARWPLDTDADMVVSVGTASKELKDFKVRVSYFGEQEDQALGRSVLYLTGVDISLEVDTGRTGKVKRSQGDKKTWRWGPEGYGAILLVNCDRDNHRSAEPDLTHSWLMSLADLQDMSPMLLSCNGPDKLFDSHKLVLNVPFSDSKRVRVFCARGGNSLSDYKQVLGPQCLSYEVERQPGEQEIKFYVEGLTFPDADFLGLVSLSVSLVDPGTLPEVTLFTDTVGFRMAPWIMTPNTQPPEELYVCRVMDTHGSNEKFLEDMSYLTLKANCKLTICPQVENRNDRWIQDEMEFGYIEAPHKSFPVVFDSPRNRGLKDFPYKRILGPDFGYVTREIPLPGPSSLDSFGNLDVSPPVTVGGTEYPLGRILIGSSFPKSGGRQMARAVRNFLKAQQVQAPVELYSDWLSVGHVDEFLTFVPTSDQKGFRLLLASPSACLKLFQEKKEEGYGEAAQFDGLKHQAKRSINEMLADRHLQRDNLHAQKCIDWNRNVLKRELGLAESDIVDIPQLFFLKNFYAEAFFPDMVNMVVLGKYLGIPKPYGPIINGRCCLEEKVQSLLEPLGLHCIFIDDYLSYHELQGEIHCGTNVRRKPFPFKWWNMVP
Protocol: as §1

[4] = T=0, values starred, read-out: PADI4 activity normalised to 0.1% DMSO
[5] = T=1, read-out: PADI4 activity normalised to 0.1% DMSO
[6] = T=0, read-out: PADI4 activity normalised to 0.1% DMSO
[7] = Krippendorff fit of IC50 vs time

T1 sequence (Q9UM07 whole entry): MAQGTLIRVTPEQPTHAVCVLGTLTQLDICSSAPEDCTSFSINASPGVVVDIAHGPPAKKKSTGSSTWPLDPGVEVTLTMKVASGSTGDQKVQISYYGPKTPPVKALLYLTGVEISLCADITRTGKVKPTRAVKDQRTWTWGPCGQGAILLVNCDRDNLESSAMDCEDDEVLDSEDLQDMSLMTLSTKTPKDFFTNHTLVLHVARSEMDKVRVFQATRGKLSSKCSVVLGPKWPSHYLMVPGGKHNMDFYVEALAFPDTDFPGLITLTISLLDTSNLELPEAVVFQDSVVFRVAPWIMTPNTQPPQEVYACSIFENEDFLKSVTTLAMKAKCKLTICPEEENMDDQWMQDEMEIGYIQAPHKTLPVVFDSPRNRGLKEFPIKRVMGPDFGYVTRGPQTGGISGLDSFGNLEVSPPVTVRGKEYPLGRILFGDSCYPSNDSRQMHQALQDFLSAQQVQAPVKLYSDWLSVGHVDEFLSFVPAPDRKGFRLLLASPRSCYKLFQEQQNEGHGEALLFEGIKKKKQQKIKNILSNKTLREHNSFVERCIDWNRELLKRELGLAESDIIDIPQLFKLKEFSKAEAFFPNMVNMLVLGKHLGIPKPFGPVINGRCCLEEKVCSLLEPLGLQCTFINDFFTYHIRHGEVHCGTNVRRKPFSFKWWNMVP

Compound: N=C(N)NCCC[C@@H]1NC(=O)[C@H](CCCNC(=N)CF)NC(=O)[C@H](CC(=O)O)NC(=O)[C@H](Cc2ccc(O)cc2)NC(=O)[C@H](CCCCN)NC(=O)[C@H](CO)NC(=O)[C@@H](Cc2ccc(O)cc2)NC(=O)CSC[C@@H](C(=O)NCC(N)=O)NC(=O)[C@H](CC(=O)O)NC(=O)[C@H](CCCNC(=N)N)NC(=O)[C@@H]2CCCN2C(=O)[C@H](CO)NC1=O [cP4_4, ySKYD(2)RSPRDCG] ({CH2CO}-[dY]SKYD[Orn(fluoroacetimidoyl)]RSPRDCG-NH2; thioether N-12)
- IC50 ([1]; 1 h preincubation of peptide and PADI4, 10 mM CaCl2, read-out: IC50 Values 1 h preincubation): 70 ± 4 nM
- IC50 ([1]; no preincubation of peptide and PADI4, 10 mM CaCl2, read-out: IC50 Values 0 h preincubation): 4400 ± 70 nM
- remaining activity at 0.003 µM [1, 4]: 97.2%
- remaining activity at 0.003 µM [1, 5]: 84.1%
- remaining activity at 0.01 µM [1, 4]: 92.4%
- remaining activity at 0.01 µM [1, 5]: 86.9%
- remaining activity at 0.03 µM [1, 6]: 93.5%
- remaining activity at 0.03 µM [1, 5]: 73.7%
- remaining activity at 0.1 µM [1, 6]: 90.5%
- remaining activity at 0.1 µM [1, 5]: 29.1%
- remaining activity at 0.3 µM ([1]; peptide 0.3 µM, T=0, read-out: PADI4 activity normalised to 0.1% DMSO): 87.5%
- remaining activity at 1 µM ([1]; peptide 1 µM, T=0, read-out: PADI4 activity normalised to 0.1% DMSO): 76.3%
- remaining activity at 3 µM ([1]; peptide 3 µM, T=0, read-out: PADI4 activity normalised to 0.1% DMSO): 53.9%
- remaining activity at 10 µM ([1]; peptide 10 µM, T=0, read-out: PADI4 activity normalised to 0.1% DMSO): 20.8%
- remaining activity at 30 µM ([1]; peptide 30 µM, T=0, read-out: PADI4 activity normalised to 0.1% DMSO): 8.03%
- kinact/KI [2]: 1230 M⁻¹ s⁻¹
- IC50 ([2]; 15 mins): 8.81 µM and 8.73 µM and 8.28 µM
- IC50 ([2]; 30 mins): 4.67 µM and 4.78 µM and 4.31 µM
- IC50 ([2]; 45 mins): 3.42 µM and 4.19 µM and 3.18 µM
- IC50 ([2]; 60 mins): 3.08 µM and 3.1 µM and 2.67 µM
- IC50 ([2]; 75 mins): 2.72 µM and 2.53 µM and 2.47 µM
- Ki [2, 7]: 1900 ± 100 nM
- kinact [2, 7]: 0.00217 s⁻¹
- PADI4 activity, normalised (Figure S11c) ([2]; cP4_4 0.08 µM): 98.2718 and 96.1223 and 99.8314
- PADI4 activity, normalised (Figure S11c) ([2]; cP4_4 0.24 µM): 93.4756 and 94.2113
- PADI4 activity, normalised (Figure S11c) ([2]; cP4_4 0.4 µM): 100.554 and 87.7482
- PADI4 activity, normalised (Figure S11c) ([2]; cP4_4 1.2 µM): 75.0589 and 75.4411 and 70.326
- PADI4 activity, normalised (Figure S11c) ([2]; cP4_4 2 µM): 67.2548 and 61.3338
- PADI4 activity, normalised (Figure S11c) ([2]; cP4_4 6 µM): 29.9549 and 26.3769
- PADI4 activity, normalised (Figure S11c) ([2]; cP4_4 10 µM): 22.5225 and 20.5991 and 19.0146
- PADI4 activity, normalised (Figure S11c) ([2]; cP4_4 30 µM): 7.3132 and 8.5351 and 5.9198
- PADI4 activity, normalised (Figure S11c) ([2]; cP4_4 50 µM): 3.0999 and 5.4575 and 3.9528
- PADI1 activity, normalised (Figure S11c) ([3]; cP4_4 0.08 µM): 100 and 102.598
- PADI1 activity, normalised (Figure S11c) ([3]; cP4_4 0.24 µM): 93.9237 and 90.941
- PADI1 activity, normalised (Figure S11c) ([3]; cP4_4 0.4 µM): 98.9277 and 105.899
- PADI1 activity, normalised (Figure S11c) ([3]; cP4_4 1.2 µM): 98.9873 and 104.073
- PADI1 activity, normalised (Figure S11c) ([3]; cP4_4 2 µM): 100.477 and 105.618
- PADI1 activity, normalised (Figure S11c) ([3]; cP4_4 6 µM): 94.7578 and 98.4551
- PADI1 activity, normalised (Figure S11c) ([3]; cP4_4 10 µM): 89.6942 and 96.559
- PADI1 activity, normalised (Figure S11c) ([3]; cP4_4 30 µM): 69.6188 and 76.5449
- PADI1 activity, normalised (Figure S11c) ([3]; cP4_4 50 µM): 54.4281 and 69.382
